Reference: publication PMC9866191, “Novel 9-Benzylaminoacridine Derivatives as Dual Inhibitors of Phosphodiesterase 5 and Topoisomerase II for the Treatment of Colon Cancer” (Molecules, 2023)

Experiments:
CCD-966SK = experiment: MTT cell proliferation assay, CCD-966SK; details: CCD966SK skin fibroblast, 72 h MTT
LOX IMVI = experiment: NCI-60 one-dose screen; type: cell-based; details: Homo sapiens, Melanoma panel, single dose 10^−5 M, read-out: Growth inhibition %
PDE5A = target: T1, PDE5A (Homo sapiens, UniProt O76074); experiment: Phosphodiesterase 5 HTRF cGMP assay; type: biochemical; details: for IC50: means ± S.D. (n = 4), read-out: PDE5 IC50; for inhibition at 10 µM: read-out: PDE5 % Inhibition at 10 μM
T1 construct: purchased BPS Bioscience, San Diego, CA, USA
Description: All the synthesized acridine derivatives were tested for their in vitro ability to inhibit PDE5A at a screening dose of 10 µM.
The enzyme activities of phosphodiesterase 5 (PDE5) were measured using an HTRF cGMP assay kit (Cisbio, Codolet, France). […] Afterward, the HTRF reagent (cGMP-d2 and anti-cGMP-cryptate) was added for 1 h at 25 °C, and PDE activity was assayed on an HTRF reader (Tecan Infinite F200 Pro).

NCI-H226 = experiment: NCI-60 one-dose screen; type: cell-based; details: Homo sapiens; NCI-H226, Non-small cell lung panel; single dose 10^−5 M; read-out: Growth inhibition %
Description: (§1) The newly synthesized compounds were screened for their in vitro anticancer activity at the Developmental Therapeutic Program (DTP) of the National Cancer Institute (NCI). The screening involved a panel of 60 human tumor cell lines consisting of 9 tissue types to screen for potential anti-cancer agents. The primary screening of submitted compounds was performed by testing a single dose (10^−5 M) in the full NCI-60 panel. The detailed % inhibition by the tested compounds against the 60 cell lines is shown in Tables S1–S3 in the Supporting Information.

MDA-MB-468 = experiment: NCI-60 one-dose screen; type: cell-based; details: Homo sapiens; MDA-MB-468, Breast Cancer panel; single dose 10^−5 M; read-out: Growth inhibition %
Description: as §1

SW-620 = experiment: NCI-60 one-dose screen; type: cell-based; details: Homo sapiens; SW-620, Colon Cancer panel; single dose 10^−5 M; read-out: Growth inhibition %
Description: as §1

RPMI-8226 = experiment: NCI-60 one-dose screen; type: cell-based; details: Homo sapiens; RPMI-8226, Leukemia panel; single dose 10^−5 M; read-out: Growth inhibition %
Description: as §1

RXF 393 = experiment: NCI-60 one-dose screen; type: cell-based; details: Homo sapiens; RXF 393, Renal Cancer panel; single dose 10^−5 M; read-out: Growth inhibition %
Description: as §1

MDA-MB-231/ATCC = experiment: NCI-60 one-dose screen; type: cell-based; details: Homo sapiens, Breast Cancer panel, single dose 10^−5 M, read-out: Growth inhibition %
Description: as §1

SF-539 = experiment: NCI-60 one-dose screen; type: cell-based; details: Homo sapiens; SF-539, CNS Cancer panel; single dose 10^−5 M; read-out: Growth inhibition %
Description: as §1

U251 = experiment: NCI-60 one-dose screen; type: cell-based; details: Homo sapiens, U-251; U251, CNS Cancer panel; single dose 10^−5 M; read-out: Growth inhibition %
Description: as §1

DU-145 = experiment: NCI-60 one-dose screen; type: cell-based; details: Homo sapiens; DU-145, Prostate Cancer panel; single dose 10^−5 M; read-out: Growth inhibition %
Description: as §1

HT29 = experiment: NCI-60 one-dose screen; type: cell-based; details: Homo sapiens, HT-29; HT29, Colon Cancer panel; single dose 10^−5 M; read-out: Growth inhibition %
Description: as §1

SK-OV-3 = experiment: NCI-60 one-dose screen; type: cell-based; details: Homo sapiens; SK-OV-3, Ovarian Cancer panel; single dose 10^−5 M; read-out: Growth inhibition %
Description: as §1

K-562 = experiment: NCI-60 one-dose screen; type: cell-based; details: Homo sapiens, K562; K-562, Leukemia panel; single dose 10^−5 M; read-out: Growth inhibition %
Description: as §1

NCI-H322M = experiment: NCI-60 one-dose screen; type: cell-based; details: Homo sapiens, Non-small cell lung panel, single dose 10^−5 M, read-out: Growth inhibition %
Description: as §1

SK-MEL-2 = experiment: NCI-60 one-dose screen; type: cell-based; details: Homo sapiens; SK-MEL-2, Melanoma panel; single dose 10^−5 M; read-out: Growth inhibition %
Description: as §1

NCI-H460 = experiment: NCI-60 one-dose screen; type: cell-based; details: Homo sapiens; NCI-H460, Non-small cell lung panel; single dose 10^−5 M; read-out: Growth inhibition %
Description: as §1

SNB-19 = experiment: NCI-60 one-dose screen; type: cell-based; details: Homo sapiens; SNB-19, CNS Cancer panel; single dose 10^−5 M; read-out: Growth inhibition %
Description: as §1

PC-3 = experiment: NCI-60 one-dose screen; type: cell-based; details: Homo sapiens; PC-3, Prostate Cancer panel; single dose 10^−5 M; read-out: Growth inhibition %
Description: as §1

KM12 = experiment: NCI-60 one-dose screen; type: cell-based; details: Homo sapiens; KM12, Colon Cancer panel; single dose 10^−5 M; read-out: Growth inhibition %
Description: as §1

ACHN = experiment: NCI-60 one-dose screen; type: cell-based; details: Homo sapiens, Renal Cancer panel, single dose 10^−5 M, read-out: Growth inhibition %
Description: as §1

BT-549 = experiment: NCI-60 one-dose screen; type: cell-based; details: Homo sapiens; BT-549, Breast Cancer panel; single dose 10^−5 M; read-out: Growth inhibition %
Description: as §1

SK-MEL-28 = experiment: NCI-60 one-dose screen; type: cell-based; details: Homo sapiens; SK-MEL-28, Melanoma panel; single dose 10^−5 M; read-out: Growth inhibition %
Description: as §1

SNB-75 = experiment: NCI-60 one-dose screen; type: cell-based; details: Homo sapiens; SNB-75, CNS Cancer panel; single dose 10^−5 M; read-out: Growth inhibition %
Description: as §1

[1] = test system: panel of 60 human tumor cell lines; experiment: NCI 60-cell line one-dose screen (mean); type: cell-based; details: mean of the 60 cell lines, single dose 10^−5 M, read-out: Mean % Growth Inhibition
Description: as §1

CCRF-CEM = experiment: NCI-60 one-dose screen; type: cell-based; details: Homo sapiens, Leukemia panel, single dose 10^−5 M, read-out: Growth inhibition %
IGROV1 = experiment: NCI-60 one-dose screen; type: cell-based; details: Homo sapiens, IGROV-1; IGROV1, Ovarian Cancer panel; single dose 10^−5 M; read-out: Growth inhibition %

Compound	% Inhibition at 10 µM (CCD-966SK) [%]	inhibition at 10 µM (LOX IMVI) [%]	IC50 (PDE5A) [µM]	inhibition at 10 µM (PDE5A) [%]	inhibition at 10 µM (NCI-H226) [%]	inhibition at 10 µM (MDA-MB-468) [%]	inhibition at 10 µM (SW-620) [%]	inhibition at 10 µM (RPMI-8226) [%]	inhibition at 10 µM (RXF 393) [%]	inhibition at 10 µM (MDA-MB-231/ATCC) [%]	inhibition at 10 µM (SF-539) [%]	inhibition at 10 µM (U251) [%]	inhibition at 10 µM (DU-145) [%]	inhibition at 10 µM (HT29) [%]	inhibition at 10 µM (SK-OV-3) [%]	inhibition at 10 µM (K-562) [%]	inhibition at 10 µM (NCI-H322M) [%]	inhibition at 10 µM (SK-MEL-2) [%]	inhibition at 10 µM (NCI-H460) [%]	inhibition at 10 µM (SNB-19) [%]	also measured
COc1cccc(CNc2c3ccccc3nc3ccccc23)c1 [Compound 6, Acridin-9-yl-(3-methoxybenzyl)-amine]	54.31 ± 0.98	80.2	> 10	39.7 ± 3.2	51.9	86.4	74.5	83.3	86.2	50.1	80.6	61.3	46.7	81.3	45.3	93.4	56	32.1	90	64	inhibition at 10 µM (PC-3): 61.1%; inhibition at 10 µM (KM12): 64.1%; inhibition at 10 µM (ACHN): 80.8%; inhibition at 10 µM (BT-549): 31.3%; inhibition at 10 µM (SK-MEL-28): 18.8%; inhibition at 10 µM (SNB-75): 43.1%; inhibition at 10 µM [1]: 63.1%; inhibition at 10 µM (CCRF-CEM): 69.8%; inhibition at 10 µM (IGROV1): 71.7%
COc1ccc(CNc2c3ccccc3nc3ccccc23)cc1 [Compound 7, Acridin-9-yl-(4-methoxybenzyl)-amine]	13.09 ± 2.52	79.1	> 10	< 0	48.6	72.9	74.4	84.2	72.4	52.6	72.5	63.5	52	80.7	46.2	93	52.9	39.9	90.3	66	inhibition at 10 µM (PC-3): 66%; inhibition at 10 µM (KM12): 66.8%; inhibition at 10 µM (ACHN): 81.2%; inhibition at 10 µM (BT-549): 19.9%; inhibition at 10 µM (SK-MEL-28): 20.4%; inhibition at 10 µM (SNB-75): 38.2%; inhibition at 10 µM [1]: 63.2%; inhibition at 10 µM (CCRF-CEM): 61%; inhibition at 10 µM (IGROV1): 72.8%
Fc1ccccc1CNc1c2ccccc2nc2ccccc12 [Compound 8, Acridin-9-yl-(2-fluorobenzyl)-amine]	42.52 ± 2.0	73.9	7.16 ± 2.75	57.5 ± 6.43	43.6	78.2	71.5	87.7	51.2	46	68.9	53.1	38.1	76.7	49.1	85.8	49.7	21.8	86.5	56.1	inhibition at 10 µM (PC-3): 52.9%; inhibition at 10 µM (KM12): 57.8%; inhibition at 10 µM (ACHN): 76.9%; inhibition at 10 µM (BT-549): 15.1%; inhibition at 10 µM (SK-MEL-28): 15.9%; inhibition at 10 µM (SNB-75): 28.3%; inhibition at 10 µM [1]: 56.5%; inhibition at 10 µM (CCRF-CEM): 54%; inhibition at 10 µM (IGROV1): 63.4%
Fc1cccc(CNc2c3ccccc3nc3ccccc23)c1 [Compound 9, Acridin-9-yl-(3-fluorobenzyl)-amine]	42.74 ± 2.09	87.7	7.49 ± 2.2	55.9 ± 5.78	49.4	99.4	78	89.9	67.2	69.4	73.1	64.8	58.3	85.7	48.9	84.3	59.8	18.6	87.3	64.1	inhibition at 10 µM (PC-3): 51%; inhibition at 10 µM (KM12): 51.4%; inhibition at 10 µM (ACHN): 82.9%; inhibition at 10 µM (BT-549): 22.9%; inhibition at 10 µM (SK-MEL-28): 21.5%; inhibition at 10 µM (SNB-75): 37%; inhibition at 10 µM [1]: 64.2%; inhibition at 10 µM (CCRF-CEM): 53.7%; inhibition at 10 µM (IGROV1): 74.4%
Fc1ccc(CNc2c3ccccc3nc3ccccc23)cc1 [Compound 10, Acridin-9-yl-(4-fluorobenzyl)-amine]	52.93 ± 1.00	90.6	> 10	47 ± 7.06	48.2	88.5	77.2	100	99.8	61.7	86.9	74.1	65.1	83.9	60	95.2	61.5	56.2	91.2	67.6	IC50 (CCD-966SK; read-out: IC50 μM): 9.26 ± 0.21 µM; inhibition at 10 µM (PC-3): 73.1%; inhibition at 10 µM (KM12): 71.7%; inhibition at 10 µM (ACHN): 87.5%; inhibition at 10 µM (BT-549): 19.3%; inhibition at 10 µM (SK-MEL-28): 31.8%; inhibition at 10 µM (SNB-75): 57.9%; inhibition at 10 µM [1]: 72.3%; inhibition at 10 µM (CCRF-CEM): 74%; inhibition at 10 µM (IGROV1): 78.1%
